{"source": "patent US20120090043A1", "about": "“TARGETS FOR RETROVIRUS ASSOCIATED DISEASES” (priority 2009, published 2012)", "key": {"[1]": {"test_system": "HTLV-1 LTR promoter transactivation by HTLV-1 Tax", "experiment": "Transactivation assay, HTLV-1 LTR luciferase reporter with HTLV-1 Tax", "format": "cell-based", "details": "HEK293 cells co-transfected with pHTLV1LTR-Luc, HTLV-1 Tax and the human ORF; relative luciferase activity 24 h post-transfection; positive if >=2 or <=0.5 and p<0.05", "source_text": "(§1) Twenty-four hours post-transfection, cells were washed three times with PBS, lysed and luciferase activities determined from two independent transfection experiments in triplicate. We computed a paired t-test to assess the difference of the means between samples with and without the human interactor. For a trial to be considered positive, the relative luciferase activities has to be >=2 or <=0.5, and the p-value of the t-test<0.05.\nExpression vectors encoding human ORFs and HIV-1 Tat or HTLV-1 Tax proteins were tested in a transactivation reporter assay against reporter plasmids harboring HIV-1 or HTLV-1 viral promoter sequences cloned upstream of the luciferase reporter gene. […] Wherever not expressly specified, constructs used herein were generally made by sub-cloning entry clones from the ORFeome V3.1 into suitable destination vectors."}, "[2]": {"test_system": "HIV-1 LTR promoter transactivation by HIV-1 Tat", "experiment": "Transactivation assay, HIV-1 LTR luciferase reporter with HIV-1 Tat", "format": "cell-based", "details": "HEK293 cells co-transfected with pHIV1LTR-Luc, HIV-1 Tat and the human ORF; relative luciferase activity 24 h post-transfection; positive if >=2 or <=0.5 and p<0.05", "source_text": "as §1, with “The plasmids pHIV1LTR-Luc or pHTLV1LTR-Luc containing a luciferase reporter gene under the control of the HIV-1 or HTLV-1 LTR promoters and plasmids expressing either HIV-1 Tat or HTLV-1 Tax and each human ORF found to interact with viral proteins were transfected into 10^4 HEK293 cells using the calcium phosphate method. Twenty-four” for “Twenty-four”\nMany HIV/HTLV-human interactions in our data set (130/212) involved the retroviral transactivator proteins HTLV-1 Tax (57/212), HTLV-2 Tax2 (49/212), HIV-1 Tat (10/212) and HIV-2 Tat (14/212). Human proteins interacting with viral transactivators likely influence Tat or Tax transactivation. Expression vectors encoding human ORFs and HIV-1 Tat or HTLV-1 Tax proteins were tested in a transactivation reporter assay against reporter plasmids harboring HIV-1 or HTLV-1 viral promoter sequences cloned upstream of the luciferase reporter gene. In the controls Tat or Tax respectively activated HIV or HTLV LTR-directed gene expression. Co-transfection of interacting human ORFs identified 71 proteins (54% of the 131 human targets in our data set) that regulated HIV (26.7% of targets), HTLV (37.4% of targets) or both (9.9% of targets) LTR promoter activation by Tat or Tax (see Tables 7 and 8; Table 13 below containing quantitative data on the regulation of transactivation). Wherever not expressly specified, constructs used herein were generally made by sub-cloning entry clones from the ORFeome V3.1 into suitable destination vectors."}, "TRAF2": {"test_system": "TRAF2", "experiment": "Western blot of HIV-1 Gag induced TRAF2 degradation in HEK293T cells", "format": "cell-based, human", "source_text": "FIG. 8 illustrates (A) Western-blotting of HEK293T cell extracts transfected with expressing vectors for GST-TRAF2 or truncated mutants deltaTRAF2 and deltaRING and p55 GAG/GFP, as indicated. Cell extracts were immunobloted with anti-GST, anti-GFP and anti-actin antibodies. (B) Western-blotting of HEK293T cells transfected with expressing vectors for GST-TRAF2 or GST-deltaRING truncated mutant, p55 GAG/GFP and Myc-Ubiquitin, as indicated. Cell extracts were immunobloted with anti-GST, anti-Myc and anti-actin antibodies. (C) Cells were pretreated with the cathepsin B inhibitor CA-074Me (10 μM) or the proteasomal inhibitor MG-132 (1 μM) for 24 H. Cell lysates were analysed as in (B).\nTo further corroborate that HIV Gag protein targets TRAF2 for proteasomal degradation, we first co-expressed in HEK293 cells HIV-1 Gag and TRAF2 or its truncation mutants lacking the TRAF domain (ΔTRAF) required for upstream signaling, or lacking the RING domain (ΔRING) required for E3 ubiquitin ligase function and downstream signaling. […]\nIn the presence of HIV-1 Gag we observed reduction of TRAF2 and ΔTRAF protein levels but not with the RING domain truncated mutant (FIG. 8A). To test whether TRAF2-E3 ubiquitin ligase activity was affected by HIV1 Gag, we next co-transfected a Myc-Ubiquitin expressing vector and evaluated the levels of Myc-tagged cellular ubiquitylated proteins by immunoblotting. […]"}, "[3]": {"test_system": "HTLV-1 transformed cell line (MT4)", "experiment": "Quantitative RT-PCR of HTLV-1 mRNA in MT4 cells after γ-secretase (Notch pathway) inhibition", "format": "cell-based", "details": "1 μM, 48 hours, vs vehicle (0.5% DMSO), mRNA relative to GAPDH", "protocol": "FIG. 9 illustrates relative HTLV1-HBZ, -Gag and -Tax mRNA expression following MT4 cells treatment with vehicle (0.5% DMSO) or 1 μM of γ-secretase inhibitor L685,458. Viral mRNA expression data are calculated relative to GAPDH mRNA expression data as 2̂(CT(GAPDH)-CT(HBZ/Gag/Tax)) over three times triplicate experiments for each gene.\nHTLV-1 transformed cell line (MT4) from Dr. Douglas Richman (Harada et al. Science, 1985, col. 229, p. 563-566) was obtained through the AIDS Research and Reference Reagent Program, Division of AIDS, NIAID, NIH. MT4 cells were cultured in RPMI supplemented with 10% fetal bovine serum and antibiotics. MT-4 cells were treated for 48 hours with a γ-secretase inhibitor (L-685,458) (Shearman et al. Biochemistry, 2000, vol. 39, 8698-8704). at 1 μM or vehicle (0.5% DMSO). Total RNA were then isolated by Trizol method, subjected to Dnase treatment and cDNAs synthesized using the RevertAid First Strand cDNA Synthesis kit according to the manufacturer instructions (Fermentas). Quantitative Real-time PCR for GAPDH, HBZ, Gag and Tax expression was performed on StepOne instrument (Applied Biosystem) using SYBR green dye (Eurogentec). Viral mRNA expression data are calculated relative to GAPDH mRNA expression data as 2̂(CT(GAPDH)—CT(HBZ/Gag/Tax)) over three times triplicate experiments for each gene, and differences were assessed through one-tailed Student's t-test.\nTo directly assess the involvement of the Notch pathway in viral infection, we treated HTLV-1 transformed cell line (MT4) with a γ-secretase inhibitor (GSI) (L-685,458) and tested whether inhibition of the Notch pathway could influence HTLV-1 expression in MT4 cell line."}}, "note": "Peptide text beside a SMILES is read from it. * marks the point of attachment. Cbz = O=C(OCc1ccccc1)*"}
{"compound": "PCBP1: human host interactor protein, Gene ID 5093, expressed from transfected ORF vector", "values": [{"measurement": "HTLV_LTR transactiv.", "setting": "[1]", "value": 0.44, "unit": "fold change"}]}
{"compound": "ZMAT1: human host interactor protein, Gene ID 84460, expressed from transfected ORF vector", "values": [{"measurement": "HIV_LTR transactiv.", "setting": "[2]", "value": 0.20, "unit": "fold change"}]}
{"compound": "KCTD1: human host interactor protein, Gene ID 284252, expressed from transfected ORF vector", "values": [{"measurement": "HTLV_LTR transactiv.", "setting": "[1]", "value": 0.42, "unit": "fold change"}]}
{"compound": "CC(C)C[C@@H](C=O)NC(=O)[C@H](CC(C)C)NC(=O)[C@H](CC(C)C)NC(=O)OCc1ccccc1", "note": "[MG132] (Cbz-Leu-Leu-Leu-aldehyde)", "values": [{"measurement": "HIV1-Gag induced degradation of TRAF2", "setting": "TRAF2; FIG. 6", "value": "not inhibited"}, {"measurement": "HIV-1 Gag induced degradation of TRAF2", "setting": "TRAF2; HEK293T cells pretreated with 1 μM for 24 H, FIG. 8C", "value": "could be blocked"}]}
{"compound": "C8orf32: human host interactor protein, Gene ID 55093, expressed from transfected ORF vector", "values": [{"measurement": "HTLV_LTR transactiv.", "setting": "[1]", "value": 0.26, "unit": "fold change"}]}
{"compound": "LOC91661: human host interactor protein, Gene ID 91661, expressed from transfected ORF vector", "values": [{"measurement": "HIV_LTR transactiv.", "setting": "[2]", "value": 0.16, "unit": "fold change"}]}
{"compound": "BHLHB2: human host interactor protein, Gene ID 8553, expressed from transfected ORF vector", "values": [{"measurement": "HTLV_LTR transactiv.", "setting": "[1]", "value": 0.20, "unit": "fold change"}]}
{"compound": "CRX: human host interactor protein, Gene ID 1406, expressed from transfected ORF vector", "values": [{"measurement": "HIV_LTR transactiv.", "setting": "[2]", "value": 0.24, "unit": "fold change"}]}
{"compound": "HOXB9: human host interactor protein, Gene ID 3219, expressed from transfected ORF vector", "values": [{"measurement": "HTLV_LTR transactiv.", "setting": "[1]", "value": 3.69, "unit": "fold change"}]}
{"compound": "NOS3: human host interactor protein, Gene ID 4846, expressed from transfected ORF vector", "values": [{"measurement": "HTLV_LTR transactiv.", "setting": "[1]", "value": 0.45, "unit": "fold change"}]}
{"compound": "PSMF1: human host interactor protein, Gene ID 9491, expressed from transfected ORF vector", "values": [{"measurement": "HTLV_LTR transactiv.", "setting": "[1]", "value": 14.83, "unit": "fold change"}]}
{"compound": "UBE2I: human host interactor protein, Gene ID 7329, expressed from transfected ORF vector", "values": [{"measurement": "HIV_LTR transactiv.", "setting": "[2]", "value": 3.34, "unit": "fold change"}]}
{"compound": "CC(C)C[C@H](NC(=O)[C@H](Cc1ccccc1)C[C@@H](O)[C@H](Cc1ccccc1)NC(=O)OC(C)(C)C)C(=O)N[C@@H](Cc1ccccc1)C(N)=O", "note": "[L-685,458]", "values": [{"measurement": "HTLV-1 Tax1 expression", "setting": "[3]; p<0.003", "value": "significantly lowers"}, {"measurement": "HTLV-1 Gag expression", "setting": "[3]; p<0.04", "value": "significantly lowers"}, {"measurement": "HTLV-1 HBZ expression", "setting": "[3]; p<2.1E-5", "value": "significantly lowers"}]}
{"compound": "HOXA3: human host interactor protein, Gene ID 3200, expressed from transfected ORF vector", "values": [{"measurement": "HTLV_LTR transactiv.", "setting": "[1]", "value": 0.25, "unit": "fold change"}, {"measurement": "HIV_LTR transactiv.", "setting": "[2]", "value": 0.29, "unit": "fold change"}]}
{"compound": "FXR2: human host interactor protein, Gene ID 9513, expressed from transfected ORF vector", "values": [{"measurement": "HTLV_LTR transactiv.", "setting": "[1]", "value": 0.38, "unit": "fold change"}]}
{"compound": "OTX2: human host interactor protein, Gene ID 5015, expressed from transfected ORF vector", "values": [{"measurement": "HTLV_LTR transactiv.", "setting": "[1]", "value": 7.37, "unit": "fold change"}]}
{"compound": "DVL2: human host interactor protein, Gene ID 1856, expressed from transfected ORF vector", "values": [{"measurement": "HIV_LTR transactiv.", "setting": "[2]", "value": 0.40, "unit": "fold change"}]}
